In PMC11465415, “Characterization of conformational states of the homodimeric enzyme fluoroacetate dehalogenase by ^19F–^13C two-dimensional NMR” (RSC Chemical Biology, 2024):

Molecular target: T1, fluoroacetate dehalogenase (FAcD) (Rhodopseudomonas palustris, UniProt Q6NAM1)
T1 construct: gene RPA1163; 300-residue homodimer expressed in E. coli BL21; all Trp replaced biosynthetically by 5-fluoro-(phenyl-13C6)-L-tryptophan; 9 Trp per protomer
Assay: […]-13C TROSY HSQC and 1D […] NMR
Assay type: binding
Settings: 50 °C; enzyme saturated with bromoacetate; 5-fluorotryptophan-labelled enzyme; active site; unreacted substrate analogue

T1 sequence (Q6NAM1 whole entry): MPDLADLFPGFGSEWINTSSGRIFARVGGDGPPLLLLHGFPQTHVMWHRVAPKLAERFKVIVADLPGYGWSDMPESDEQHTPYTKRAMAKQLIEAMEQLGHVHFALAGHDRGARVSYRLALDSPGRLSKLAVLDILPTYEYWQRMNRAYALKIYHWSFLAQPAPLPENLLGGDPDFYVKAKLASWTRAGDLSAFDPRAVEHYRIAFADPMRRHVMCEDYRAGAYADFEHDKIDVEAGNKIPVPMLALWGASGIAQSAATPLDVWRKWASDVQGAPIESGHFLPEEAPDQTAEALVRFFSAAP

SMILES: O=C(O)CBr [bromoacetate]
- 19F-13C TROSY HSQC and 1D 19F NMR: The addition of BrAc is also observed to result in a pronounced shift for W185
